14 compounds from PubChem BioAssay (NCI) can be followed below.

Holding throughout (test): inhibition of tumour cell growth, NCI panel, 48 h
In assay [1] the test system is DU-145 prostate.
The test system of assay [2] is EKVX NSCLC.
Assay [3] deals with KM12 colon.
For assay [4], the system named is MOLT-4 leukemia.
In assay [5] the test system is OVCAR-3 ovarian.
Assay [6] concerns OVCAR-4 ovarian.
For assay [7], the system named is SNB-75 CNS.
Assay [8] relates to SW-620 colon.
Assay [9] concerns UACC-62 melanoma.
The test system of assay [10] is SK-OV-3 ovarian.

The structures appear in SMILES notation.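 Where inhibition never reached the appropriate level, the endpoint shown equals the highest concentration tested. Otherwise, values were interpolated linearly from a five-concentration, 48-hour dose response in 96-well plates. GI50 is the concentration that inhibits growth by half. Definition used: TGI = concentration required for complete inhibition of growth.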

Take `O=C(Nc1ccc(Cl)cc1F)c1ccccc1O`: the GI50 was 4.13 µM in [1]; 1.96 µM in assay [2]; 2.97 µM in assay [3]; 3.49 µM in assay [4]; 2.98 µM in assay [5]; 2.75 µM in [6]. Also, the figures for the GI50 in assay [7], in assay [8] and in assay [9] were 3.26 µM, 3.26 µM and 2.08 µM, respectively. Further, the TGI in [1] was > 100 µM; in assay [2] it was 12.5 µM; in [3], 20.3 µM; in assay [4], 13.5 µM; in [5], > 100 µM; in [6], > 100 µM. The results for the TGI in assay [7], in [8] and in assay [9] were > 100 µM, > 100 µM and 9.24 µM, respectively.

Take `Cn1cc(CO)c2c1C(=O)C=C(N1CC1)C2=O`: the GI50 in assay [1] is < 0.01 µM; in assay [2], 0.214 µM; in assay [3], 0.0145 µM; in [4], 2.64 µM; in assay [5], < 0.0133 µM; in [6], 0.0256 µM. The GI50 in assay [10] was 0.0413 µM; in [7], < 0.01 µM; in assay [8], < 0.01 µM; in assay [9], < 0.01 µM. The TGI in assay [1] was 0.131 µM; in assay [2], 1.15 µM; in [3], 0.0855 µM; in assay [4] it was > 100 µM; in assay [5], 0.0375 µM; in assay [6], 0.0917 µM. Further, the TGI in [10] is 1.31 µM; in assay [7], 0.0444 µM; in assay [8], > 31.6 µM; in assay [9], 0.0163 µM.

For `CS(=O)(=O)Nc1ccc2c(c1)oc(=O)c1ccccc12`, the TGI in [1], in assay [2], in assay [3], in assay [4], in assay [5] and in assay [6] was > 100 µM each time. Further, the TGI in assay [7], in assay [8] and in assay [9] was > 100 µM in each case.

In the case of `COc1cc2nc(-c3ccc(Cl)cc3)cc(OCCCN3CCCCC3)c2cc1OC`, the GI50 in assay [1] was 2.54 µM; in [2], 1.47 µM; in assay [3] it was 3.07 µM; in assay [5], 3.23 µM; in assay [6], 3.85 µM; in [7] it was 1.98 µM. In addition, the GI50 in [8] is 3.09 µM; in assay [9], 1.94 µM. Moreover, the TGI is > 100 µM in [1]; > 100 µM in assay [2]; > 100 µM in assay [3]; > 100 µM in [5]; > 100 µM in [6]; 6.19 µM in assay [7]. For the same compound, the TGI in assay [8] was > 100 µM; in assay [9], 4.42 µM.

On to `CC(C)=CC/C=C(/C)[C@H]1CC[C@]2(C)[C@@H]1CC[C@@H]1[C@@]3(C)CCCNC(C)(C)[C@@H]3CC[C@]12C`, for which the GI50 in [1] is 2.08 µM; in assay [2], 10.6 µM; in assay [4] it was 2.15 µM; in assay [5], 2.08 µM; in assay [6], 3.33 µM; in assay [10], 10.6 µM. The GI50 in [7] was 2.56 µM; in [8] it was 1.82 µM; in assay [9], 5.5 µM. In addition, the TGI was determined as 4.31 µM in assay [1]; 28.4 µM in [2]; 5.93 µM in assay [4]; 4.28 µM in [5]; 11.4 µM in [6]; 24.8 µM in [10]. Also, the TGI in assay [7] was determined as 10.8 µM; in assay [8] it was 3.68 µM; in [9], 20.1 µM.

On to `NC(=O)NC1C(c2ccccc2)=C1c1ccccc1`, for which the TGI in assay [1] is > 100 µM; in [2] it was 60 µM; in [3], 62.2 µM; in [4] it was 17.7 µM; in assay [5], 82.9 µM; in [6] it was 30.7 µM. The TGI in assay [10] was 38.2 µM; in assay [8], 37.5 µM; in assay [9] it was 23.4 µM.

For the compound `Cc1ccc(C)c(C2=C(c3cn(C)c4ccccc34)C(=O)NC2=O)c1`, the GI50 in assay [1] is > 20.2 µM; in [3] it was 12.6 µM; in [4], 12.4 µM; in assay [5], 15.1 µM; in [6] it was > 25 µM; in assay [10], 15.1 µM. Moreover, the GI50 in assay [7] was 1.15 µM; in assay [8], 13 µM; in assay [9] it was > 25 µM. Further, the TGI in assay [1], in assay [3], in assay [4], in assay [5], in [6] and in [10] was > 25 µM throughout. The TGI in [7], in assay [8] and in [9] was > 25 µM throughout.

Turning to `CCN1CCN(C(c2ccc(C(F)(F)F)cc2)c2ccc3cccnc3c2O)CC1` (configuration not stated), the GI50 is 5.56 µM in assay [1]; 0.89 µM in [3]; 2.12 µM in [4]; 3.47 µM in [5]; 2.36 µM in assay [6]; 3.84 µM in assay [10]. Moreover, the GI50 was 1.84 µM in assay [7], 4.42 µM in assay [8] and 1.98 µM in assay [9]. Moreover, the TGI in [1] is 18.7 µM; in assay [3], 16.8 µM; in [4], 6.05 µM; in assay [5], 15.4 µM; in assay [6], 14.3 µM; in [10], 16.8 µM. Moreover, the TGI in assay [7] worked out at 17 µM; in assay [8], 19.9 µM; in assay [9], 10.4 µM.

`COc1cnc2c(c1)C(=O)c1c-2n(CCCNC(C)C)c(=O)c2cc(Cl)ccc12`: the GI50 in assay [1] is 0.173 µM; in assay [3] it was 1.09 µM; in [4], 0.0397 µM; in [5], 1.39 µM; in assay [6], 1.04 µM; in assay [7], 0.146 µM. Moreover, the GI50 was 0.0503 µM in assay [8] and 0.303 µM in assay [9]. Moreover, the TGI in assay [1] was 2.06 µM; in assay [3] it was 2.45 µM; in [4], 0.452 µM; in assay [5] it was 3.02 µM; in [6] it was 2.7 µM; in assay [7], 1.59 µM. The figures for the TGI in assay [8] and in [9] were 1.71 µM and 1.91 µM, respectively.

With `C=C(CNCc1ccccc1)c1ccc(C(=O)Nc2ccccc2N)cc1`, the GI50 is 5.05 µM in assay [1]; 32.5 µM in [2]; 4.05 µM in [3]; 7.31 µM in assay [5]; 11.7 µM in assay [6]; 4.22 µM in assay [10]. Further, the GI50 in [7] was 38.2 µM; in [8] it was 8.5 µM; in [9] it was 3.76 µM. The TGI in assay [1] was > 100 µM; in assay [2], > 100 µM; in assay [3], 21.3 µM; in assay [5], 34.2 µM; in assay [6] it was 68.1 µM; in assay [10] it was 22.8 µM. The TGI in assay [7] is 93 µM; in assay [8], > 100 µM; in assay [9] it was 25.3 µM.

For `COc1ccc(C(C)=O)cc1N1C(=O)C2C(C1=O)C1(c3ccccc3)C(=O)C2(c2ccccc2)C(c2ccc(C)cc2)=C1c1ccc(C)cc1` (configuration not stated), the GI50 in [1], in [3], in [4], in [5], in [6] and in assay [10] was > 100 µM throughout. Further, the GI50 in [7], in assay [8] and in assay [9] was > 100 µM throughout. Also, the TGI in assay [1], in assay [3], in assay [4], in assay [5], in assay [6] and in assay [10] was > 100 µM in each case. Also, the TGI in [7], in assay [8] and in assay [9] was > 100 µM throughout.

Take `Clc1nc2ccccc2nc1CI`: the GI50 in assay [1] is 17.1 µM; in [3] it was 18.2 µM; in assay [4], 1.75 µM; in [5], 5.1 µM; in assay [6] it was 5.34 µM; in [10], 14.3 µM. Moreover, the GI50 in assay [7] is 9.39 µM; in assay [8], 2.57 µM; in assay [9], 4.32 µM. The TGI was determined as 30.8 µM in assay [1]; 46.5 µM in [3]; 12.2 µM in [4]; 9.66 µM in [5]; 18.3 µM in [6]; 30.4 µM in [10]. For the same compound, the results for the TGI in assay [7], in assay [8] and in assay [9] were 30.1 µM, 6.87 µM and 16.5 µM, respectively.

`COc1cc(C#CC(=O)OC/C=C/c2ccc3c(c2)OCO3)cc(OC)c1OC`: the TGI in [1] was > 100 µM; in assay [2], 76.9 µM; in assay [3], > 100 µM; in [5], 63.3 µM; in assay [6], > 100 µM; in [10], 68.6 µM. Also, the figures for the TGI in assay [8] and in assay [9] were 80.6 µM and 37.2 µM, respectively.

Consider `C=C1C(=O)OC2CCN3CC=C(COC(=O)C(C)(O)C4(CO4)C1C)C23` (configuration not stated), for which the TGI in assay [1], in [2], in [3], in assay [4], in assay [6] and in assay [10] was > 100 µM each time. Also, the TGI in assay [8] and in assay [9] was > 100 µM throughout.
